In patent publication US4877893A, “Process for the preparation of 2-(O-alkyl)-2-thio-1,3,2-oxathiophospholanes” (priority 1987, dated 1989):

What was measured:
Assay in all cases: Fungicidal effect on infected agar nutrient media, colony diameter
Type in all cases: cell-based
[1] = tested on: Sclerotinia sclerotinia; settings: 3rd day after treatment, untreated control 41.7
Description: Agar nutrient media (Diameter 70 MM, thickness 10 mm) infected by Sclerotonia sclerotinia suspension are treated with 20 EC formulations prepared according to Example 27 and comprising 1, 10, 100 and 1000 ppm, respectively of the active ingredient of the Formula I. The fungicidal effect of the compositions is evaluated on the 3rd day after treatment by measuring the diameter of the Fungi colonies.

[2] = tested on: Alternaria tenuis; settings: 5th day after treatment, untreated control 36.8
How it was run: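 Agar media (70 mm diameter, 10 mm thick) infected with Alternaria tenuis, treated with EC formulations at 1, 10, 100 and 1000 ppm active ingredient. Fungicidal effect read on day 5 after treatment as fungal colony diameter.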

[3] = tested on: Penicillium cyclopium; settings: 7th day after treatment, untreated 26.5
How it was run: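 Agar media (70 mm diameter, 10 mm thick) infected with Penicillium cyclopium were treated with EC formulations at 1, 10, 100 and 1000 ppm active ingredient. Fungal colony diameter was measured on day 7 after treatment.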

SMILES | Diameter of colony (mm) ([1]; 1 ppm) | Diameter of colony (mm) ([1]; 10 ppm) | Diameter of colony (mm) ([1]; 100 ppm) | Diameter of colony (mm) ([1]; 1000 ppm) | Diameter of colony (mm) ([2]; 1 ppm) | Diameter of colony (mm) ([2]; 10 ppm) | Diameter of colony (mm) ([2]; 100 ppm) | Diameter of colony (mm) ([2]; 1000 ppm) | Diameter of colony (mm) ([3]; 1 ppm) | Diameter of colony (mm) ([3]; 10 ppm) | Diameter of colony (mm) ([3]; 100 ppm) | Diameter of colony (mm) ([3]; 1000 ppm)
CCCCOP1(=S)OCCS1 (stereo not drawn) [Compound 58] | 36.2 | 29.1 | 1.9 | 0 | 32.7 | 23.9 | 7.5 | 0 | 21.9 | 16.1 | 8.4 | 0
CCCCOP1(=S)OCCS1 (stereo not drawn) [Compound 59, 2-(0-n-butyl)-2-thio-1,3,2-oxathiophospholane] | 34.3 | 28.5 | 4.0 | 0 | 34.0 | 24.1 | 5.6 | 0 | 25.0 | 18.7 | 7.6 | 0
CCCCOP1(=S)OC(C)CS1 (stereo not drawn) [Compound 60, 2-(0-n-butyl)-2-thio-5-methyl-1,3,2-oxathiophospholane] | 33.7 | 30.0 | 3.8 | 0 | 33.3 | 25.5 | 6.8 | 0 | 23.6 | 19.9 | 8.2 | 0
CCCCOP1(=S)OCC(C)S1 (stereo not drawn) [Compound 61, 2-(0-n-butyl)-2-thio-4-methyl-1,3,2-oxathiophospholane] | 35.6 | 28.9 | 2.7 | 0 | 36.2 | 24.3 | 6.2 | 0 | 24.0 | 19.0 | 8.3 | 0
CCCC(C)OP1(=S)OCCS1 (stereo not drawn) [Compound 62, 2-(0-1'-methyl-n-butyl)-2-thio-1,3,2-oxathiophospholane] | 37.0 | 30.2 | 3.9 | 0 | 34.1 | 25.7 | 6.9 | 0 | 26.1 | 20.2 | 7.4 | 0
CCCCOP1(=S)OC(C)C(C)S1 (stereo not drawn) [Compound 63, 2-(0-n-butyl)-2-thio-4,5-dimethyl-1,3,2-oxathiophospholane] | 34.2 | 29.9 | 3.1 | 0 | 35.0 | 24.2 | 6.7 | 0 | 24.8 | 18.5 | 8.5 | 0
CCCCOP1(=S)OC(C)CS1 (stereo not drawn) [Compound 64] | 36.9 | 28.7 | 3.0 | 0 | 34.6 | 26.1 | 4.5 | 0 | 26.0 | 20.0 | 8.7 | 0
CCCCC(C)OP1(=S)OC(C)C(C)S1 (stereo not drawn) [Compound 65] | 35.8 | 30.1 | 3.7 | 0 | 33.8 | 25.3 | 6.6 | 0 | 24.6 | 19.1 | 7.5 | 0
